What was measured:
Type in all cases: biochemical
[1] = molecular target: T1, BRAF-GTP-KRAS-G12C complex (Homo sapiens, UniProt P01116, G12C); assay: KRAS-BRAF complex disruption TR-FRET without CYPA (presenter dependence)
T1 construct: 50 nM of His6-KRas G12C-GTP (1-169)
Method: (§1) In this example, TR-FRET was used to measure the compound-facilitated disruption of a KRAS-BRAF complex. A mixture of tagless Cyclophilin A, His6-KRAS G12C-GMP-PNP, and GST-BRAF RAS binding domain was added to a 384-well assay plate containing compounds of the invention and incubated for 3 hours. A mixture of Anti-His Eu-W1024 and anti-GST allophycocyanin was then added and the reaction was incubated for an additional 1.5 hours. TR-FRET signal was read on an EnVision microplate reader (Perkin Elmer, Ex 320 nm, Em 665/615 nm). Compounds that facilitate disruption of a KRAS_BRAF complex were identified as those eliciting a decrease in the TR-FRET ratio relative to DMSO control wells. To determine the presenter-dependence of the compound-mediated KRAS-BRAF complex disruption, Cyclophilin A was left out of the initial incubation (see Table 5). To determine G12C specificity of the compound-mediated KRAS-BRAF complex disruption, wild-type KRAS was used instead of G12C KRAS (see Table 5).
(§2) Reagents and Instrument • Tagless CYPA; 519 μM in PBS buffer, pH 7.4 • GST BRAF; 110 μM in PBS buffer, pH 7.4 • His6-KRASG12C-GMP-PNP; 50 μM in PBS buffer, pH 7.4 • His6-KRASWT-GMP-PNP; 40 μM in PBS buffer, pH 7.4 • Anti-His Eu-W1024 (LANCE® Eu-W1024; Perkin Elmer) • Anti-GST allophycocyanin (Anti-GST IgG conjugated to SureLight®-Allophycocyanin; Perkin Elmer; Product Number AD0059G) • Test compounds, 10 mM in 100% DMSO • EnVision (Perkin Elmer) • Combi MultiDrop liquid dispenser with 8-channel small volume cassette • 384-well ProxiPlate (black)
(§3) Experimental Protocol • 1. Use Mosquito to dispense 100 nL/well of compounds (varying concentration in […]) into 384-well black ProxiPlate to make assay-ready-plate (ARP). • 2. Make assay buffer containing 25 mM Hepes pH 7.3, 100 mM NaCl, 5 mM MgCl2, 0.05% BSA, and 0.002% Tween-20. • 3. Make PRE-MIX A: delivers final concentrations of 50 nM of His6-KRas G12C-GTP (1-169) and 500 nM of tagless CypA (1-165) in assay buffer. • a. […] Read on EnVision (Ex: 320 nm; Em1: 615 nm; Em2: 665 nm). • 8. […]

BRAF-GTP-KRASWT complex = molecular target: T2, BRAF-GTP-KRASWT complex (Homo sapiens, UniProt P01116+P62937); assay: KRAS-BRAF complex disruption TR-FRET with wild-type KRAS (G12C specificity); settings: with CYPA
T2 construct: substitute His6-KRas WT-GTP (1-169) for His6-KRas G12C-GTP (1-169); 500 nM of tagless CypA (1-165)
Method: as §1, §2, §3

KRAS-G12C = molecular target: T3, KRAS-G12C (Homo sapiens, UniProt P01116+P62937, G12C); assay: Percentage of crosslinking to KRAS-G12C in the presence of BME and CYPA (TOF-MS); settings: 5 min incubation; compound 2 μM, CypA 5 μM, G12C-GMPNP 0.5 μM, BME
T3 construct: CypA 1-165 (final concentration 5 μM)
Method: • 1. 10×Incubation buffer: 125 mM HEPES pH 7.4, 750 mM NaCl, 10 mM MgCl2 • 2. 50 μM Protein A stock (CypA) in incubation buffer • 3. 5 μM Protein B (G12C-GMPNP) stock in incubation buffer • 4. 20 μM compound stock in 1×Incubation buffer with 10% DMSO • 5. 25 mM BME stock solution (prepared by diluting the BME stock in Milli Q water)
CypA 1-165 (final concentration 5 μM), test compound (final concentration 2 μM) and G12C-GMPNP (final concentration 0.5 μM) were incubated in the incubation buffer ([…]) for the requisite amount of time at room temperature. The samples were quenched with formic acid, final concentration 0.5%. 10 μL aliquots were injected to TOF-MS.
Sequence of Addition for a Final Incubation Volume of 50 μL • 1. 5 μL 10×incubation buffer • 2. 28 ul H2O • 3. 2 μL from 25 mM BME stock • 4. 5 μL CypA at 50 uM • 5. 5 μL from 5 μM G12C-GMPNP • 6. 5 μL compound from 20 μM compound stock
LC-MS is performed on an Agilent 6230 TOF-LC mass spectrometer equipped with an electrospray probe operated in positive ionization mode. 10 μL samples are injected on a Sepax Bio-C4, 300 Å, 2.1×100 mm column. The mobile phase is 0.1% (vol/vol) formic acid and 0.1% 1 mM ammonium formate in 95% water, 4.8% acetonitrile (A) and 0.1% (vol/vol) formic acid and 0.1% 1 mM ammonium formate in 95% acetonitrile and 4.8% water (B). The separation is performed by a 9 min total gradient consisting of 5 min linear gradient from 25% to 50% B, and a wash at 100% B for 1.25 min, all at a flow rate of 0.6 mL/min (see attached timetable below). Mass spectrometer source conditions were capillary voltage, 4,000 V; cone voltage, 120 V; source temperature, 275° C.; scan range, 100-2,000 a.m.u. with a cycle time of 1 s.
The observed mass is generated by averaging the major peak in the total ion current (TIC). The charge-state series of the species are deconvoluted using Agilent MassHunter Bioconfirm using maximum entropy setting (range is set to 17000-23000 Da). […]

Compound | IC50 [1] | IC50 (BRAF-GTP-KRASWT complex) | % Crosslinking with KRAS-G12C-GTP in presence of CYPA, 5 min incubation (KRAS-G12C)
CC1COC(=O)C2CCCN(N2)C(=O)C(NC(=O)C(C(C)C)N(C)C(=O)C2CN(C(=O)CCl)C2)Cc2cc(O)cc(c2)-c2ccc3c(c2)c(cn3CC2COC2)C1 (mixture of isomers) [Compound 226] | > 30 µM | > 30 µM | 27%
CC1COC(=O)C2CCCN(N2)C(=O)C(NC(=O)C(C(C)C)N(C)C(=O)C2CN(C(=O)CCl)C2)Cc2cc(O)cc(c2)-c2ccc3c(S(C)(=O)=O)cn(c3c2)C1 (single isomer, unassigned) [Compound 110] | > 30 µM | > 30 µM | 83%

— patent US20240139185A1, “COMPOUNDS THAT PARTICIPATE IN COOPERATIVE BINDING AND USES THEREOF” (Revolution Medicines, Inc., priority 2018, published 2024)
